Assay results reported in patent US20030165837A1, “Method for screening DNA binding” (The Scripps Research Institute, priority 2000, published 2003).

Tests used:
[1] = system: hairpin deoxyoligonucleotides (AATTT, AAAAA, AATAA, ATTAA); assay: Ethidium bromide displacement quantitative titration, Scatchard analysis; format: binding; conditions: for binding constant for the hairpin containing AAAAA: ethidium bromide displacement titration
Description: Determination of Binding Constants. Ethidium Bromide/Thiazole Orange Displacement. A 3 mL quartz cuvette was loaded with Tris buffer (0.1 M Tris, 0.1 M, NaCl, pH 8) and ethidium bromide orthiazole orange (0.44×10^−5 M final concentration). […] The hairpin deoxyoligonucleotide of interest was added (1.1 μM, 8.8 μM in bp final concentration), the fluorescence was measured again and normalized to 100% relative fluorescence. A solution of compound (2 μL, 0.1 mM in DMSO) was added and the fluorescence was measured following 5 min of incubation at 23° C. The addition of 2 μL aliquots was continued until the system reached saturation and the fluorescence remained constant with subsequent compound additions.
(§1) Scatchard Analysis of the Titration Curve. The AF was plotted versus molar equivalents of agent and the ΔFsat was determined mathematically by solving the simultaneous equations representing the pre and post saturation regions of the titration curve. Utilizing equations (1)-(3) (FIG. 11), a Scatchard plot was generated where ΔF/[Free Agent] was plotted versus ΔF. The slope of the region immediately preceding complete saturation of the system provided −K.

[2] = system: library of 512 hairpin deoxyoligonucleotides containing all possible five bp sequences; assay: Fluorescent intercalator displacement (ethidium bromide) assay, 96-well, 512-member hairpin library; format: binding; conditions: for 3 or 2 bp AT sites, statistical site frequency in the top 50 sequences: FIG. 24; for five bp AT sites found in the top 50 sequences: share of the 16 five bp AT sites; for four bp AT sites found in the top 50 sequences: share of the 32 four bp AT sites; for three bp AT sites found in the top 50 sequences: share of the 80 three bp AT sites
Description: Ethidium Bromide Assay. […] Prior to use, each deoxyoligonucleotide was diluted to […] in water and stored at 0° C. for no longer than two days. Each well of a Costar black 96-well plate was loaded with Tris buffer containing ethidium bromide (88 μL of a 0.68×10^−5 solution in buffer (0.1 M Tris, 0.1 M NaCl, pH 8), 0.60×10^−5 M ethidium bromide final concentration). To each well was added one hairpin deoxyoligonucleotide (10 μL, 1.2×10^−5 M in DNA bp final concentration) followed by agent (2 μL of a 0.1 mM solution in water, 2.0×10^−6 M final concentration). […] Fluorescence readings are reported as % fluorescence relative to the control wells. Fluorescence plate readers show a variability of ±10%, but surface effects (i.e bubbles, dust) may contribute to larger variations requiring a second set of measurements.
All other experiments described herein (i.e. compound concentration, overall assay concentration, ethidium bromide:DNA ratio, time variability, etc.) utilized this general procedure in a 96-well plate format.

GC-rich regions = conditions: fold weaker; cited from earlier work
[3] = system: 136-membered hairpin library containing all possible four bp sites; assay: Thiazole orange displacement 96-well assay, 136-membered hairpin library; format: binding; conditions: 136 hairpins
Description: A preliminary examination of thiazole orange was conducted to assess the optimal assay concentration range, and to establish its affinity and stoichiometry of binding with representative hairpins (FIG. 10). Thiazole was utilized in both the 96-well format assay and in quantitative titrations for determining binding constants (FIGS. 27 and 28). […] A representative example of the use of thiazole orange in the 96-well format assay is illustrated in FIG. 28 with the assay of netropsin against a 136-membered hairpin library containing all possible four bp sites. […] The mean rank of the ten available 4 bp AT sites was 7.3, whereas the mean positions for the 3 and 2 bp sites were 41.6 and 67.7, respectively. Moreover, the rank order binding across the full ensemble of 4 bp AT sites is consistent with that established in footprinting studies (Portugal, J.; Waring, M. J. Eur. J. Biochem. 1987, 167, 281; Portugal, J.; Waring, M. J. FEBS Lett. 1987, 225, 195; Abu-Daya, A.; et al. Nucleic Acids Res. 1995, 23, 3385; Abu-Daya, A.; Fox, K. R. Nucleic Acids Res. 1997, 25, 4962; Harshman, K. D.; Dervan, P. B. Nucleic Acids Res. 1985, 13, 4825; Van Dyke, M. W.; et al. Proc. Natl. Acad. Sci. USA 1982, 79, 5470; Ward, B.; et al. Biochemistry 1988, 27, 1198; Fish, E. L.; et al. Biochemistry 1988, 27, 6026; Kittler, L.; et al. J. Mol. Recognit. 1999, 12, 121).

polynucleotides = assay: Binding constants of ethidium bromide and thiazole orange to polynucleotides (FIG. 10, first table)
Description: FIG. 10 is a table showing the binding constants of ethidium bromide and thiazole orange. […] The variation in the DNA used in the first table is much greater than that used in the second table which explains the greater variation in the ethidium bromide constants.

[4] = system: hairpin deoxyoligonucleotide; assay: Direct fluorescence titration of DAPI, Hoechst 33258, ethidium bromide or thiazole orange; format: binding; conditions: FIG. 10, second table
Description: Direct Fluorescence Titration of DAPI, Hoechst 33258, Ethidium Bromide or Thiazole Orange. A 3 mL quartz cuvette was loaded with Tris buffer (0.1 M Tris, 0.1 M, NaCl, pH 8) and hairpin deoxyoligonucleotide (1.1 μM, 8.8 μM in bp final concentration). A solution of DAPI (excitation 372 nm; emission 454 nm; 2 μL, 0.1 mM in DMSO), Hoechst 33258 (excitation 358 nm; emission 454 nm; 2 μL, 0.1 mM in DMSO), ethidium bromide (excitation 545 nm; emission 595 nm; 2 μL, 0.5 mM in H2O) or thiazole orange (excitation 509 nm; emission 527 nm; 2 μL, 0.5 mM in DMSO) was added and the fluorescence was measured following 5 min of incubation at 23° C. The addition of 2 μL aliquots was continued until the system reached saturation and the fluorescence remained constant with subsequent additions.
as §1

SMILES | binding constant for the hairpin containing AAAAA ([1]; hairpin containing 5′-AAAAA) [M⁻¹] | 3 or 2 bp AT sites, statistical site frequency in the top 50 sequences ([2]; 512 hairpins) [%] | five bp AT sites found in the top 50 sequences ([2]; 512 hairpins) [%] | four bp AT sites found in the top 50 sequences ([2]; 512 hairpins) [%] | three bp AT sites found in the top 50 sequences ([2]; 512 hairpins) [%] | sites containing a GC bp central to a five bp AT-rich site in the top 50 sequences ([2]; 512 hairpins) | other results
CN1CCN(c2ccc3[nH]c(-c4ccc5[nH]c(-c6ccc(O)cc6)nc5c4)nc3c2)CC1 [Hoechst 33258] | 7.2e+07 | 19 | 100 | 59 |  | no site containing a GC bp central to a 5 bp AT-rich site is found in the top 50 sequences | binding constants by ethidium bromide displacement relative to direct titration ([1]; fold weaker than direct titration, four hairpins): ~2 fold; GAAT among the top 50 sequences ([2]; 5 sequences): 10%; GATT among the top 50 sequences ([2]; 7 sequences): 14%; top 50 sequences that contain a three bp AT site flanked by a GC bp ([2]; 15 in the top 50): 30%; sequences 21-50 (next 30 after the top 20) that contain a three bp AT site flanked by a GC bp ([2]; 15 of the next 30 sequences): 50%; fluorescent decrease ([2]; hairpins >100-150): < 20%
Cn1cc(NC(=O)c2cc(NC(=O)c3cc(NC=O)cn3C)cn2C)cc1C(=O)NCCC(=N)N [distamycin A] | 1.7e+07 | 27 | 88 | 47 | 13 |  | hairpin sites with a GC bp central to a five bp AT-rich site found in the top 50 sequences ([2]; share of the 16 such hairpin sites): 44%; two bp AT sites found in the top 50 sequences ([2]; share of the 176 two bp AT sites, 512 hairpins): 6%; top 50 sequences that contain a GC bp central to a five bp AT-rich site ([2]; share of the top 50 sequences): 14%
Cn1cc(NC(=O)c2cc(NC(=O)CN=C(N)N)cn2C)cc1C(=O)NCCC(=N)N [netropsin] | 3.47e+08 | 9 | 100 | 84 | 9 | no AT-rich sequence interrupted by a central GC bp appears in the top 50 sequences | ethidium bromide displaced at saturation binding ([1]; hairpin containing 5′-AAAAA): essentially all the ethidium bromide; rank (sequence no.) of ATTTA ([2]; 1.0 μM netropsin): 3; rank (sequence no.) of ATTTA ([2]; 2.0 μM netropsin): 1; mean position of the 2 bp AT sites [3]: 67.7; mean position of the 3 bp AT sites [3]: 41.6; mean rank of the ten available 4 bp AT sites [3]: 7.3
CN1C(=Cc2cc[n+](C)c3ccccc23)Sc2ccccc21 [thiazole orange] |  |  |  |  |  |  | difference in binding constant between polynucleotides (polynucleotides): no difference; difference in binding constants between hairpins [4]: 1.3 fold

The next lines start with results.

binding constant for the hairpin containing AAAAA ([1]; hairpin containing 5′-AAAAA) [M⁻¹] | 3 or 2 bp AT sites, statistical site frequency in the top 50 sequences ([2]; 512 hairpins) [%] | five bp AT sites found in the top 50 sequences ([2]; 512 hairpins) [%] | four bp AT sites found in the top 50 sequences ([2]; 512 hairpins) [%] | three bp AT sites found in the top 50 sequences ([2]; 512 hairpins) [%] | SMILES | sites containing a GC bp central to a five bp AT-rich site in the top 50 sequences ([2]; 512 hairpins) | other results
5e+07 | 14 | 100 | 72 | 14 | Cl.Cl.N=C(N)c1ccc(-c2cc3ccc(C(=N)N)cc3[nH]2)cc1 [DAPI, 4′,6-Diamidine-2-phenylindole.2HCl] | none | % fluorescence decrease ([2]; non AT-rich hairpins (>150-512), 2 μM): < 20%; binding to GC-rich regions by intercalation relative to AT-rich minor groove binding (GC-rich regions): 100-1000 fold
6.4e+06 | 15 | 100 | 66 | 15 | CC(=O)NCC(=O)O.CC(=O)NCC(=O)O.N=C(N)c1ccc(N=NNc2ccc(C(=N)N)cc2)cc1 [berenil] |  | 
